Consider five compounds from patent US9346820B2, “HIV-1 protease inhibitors having gem-di-fluoro bicyclic P2-ligands” (priority 2013, dated 2016).

For orientation: CC50 means the concentration at which the toxic effect on the cells reaches its halfway point. What is called EC50 is the concentration needed to bring the measured effect to its halfway point.

A short description of data set [1]: Cytotoxicity (CC50), MTT assay. The note with it: human. Type of data set: cell-based. As for the experimental part:
The susceptibility of HIV-1LAI to various drugs was determined as previously described with minor modifications. Briefly, MT-2 cells (10^4/ml) were exposed to 100 50% tissue culture infectious doses (TCID50) of HIV-1LAI in the presence or absence of various concentrations of drugs in 96-well microculture plates and were incubated at 37° C. for 7 days. After 100 μl of the medium was removed from each well, 3-(4,5-dimetylthiazol-2-yl)-2,5-diphenyltetrazolium bromide (MTT) solution (10 μl, 7.5 mg/ml in phosphate-buffered saline) was added to each well in the plate, followed by incubation at 37° C. for 2 h. […] All assays were performed in duplicate or triplicate. […] In determining the drug susceptibility of certain laboratory HIV-1 strains, MT-4 cells were employed as target cells as previously described with minor modifications. In brief, MT-4 cells (10^5/ml) were exposed to 100 TCID50 of drug-resistant HIV-1 strains in the presence or absence of various concentrations of drugs and were incubated at 37° C. On day 7 of culture, the supernatants were harvested and the amounts of p24 Gag protein were determined by using a fully automated chemiluminescent enzyme immunoassay system (Lumipulse F: Fujirebio Inc., Tokyo). […] All assays were performed in duplicate or triplicate. PHA-PBMs were derived from a single donor in each independent experiment. Thus, for obtaining the data, three different donors were recruited.

For data set [2], the system named is HIV-1GRL04810^RP18. The data set is described as follows: microbe, parasite or virus in culture. Type of data set: cell-based. The settings on record: for EC50: Human immunodeficiency virus 1, MT4, read-out: EC50 HIV-1GRL04810^RP18; for fold change of EC50 HIV-1GRL04810^RP18 vs HIV-1NL4-3: number in parentheses. The method, then:
(§1) The susceptibility of HIV-1LAI to various drugs was determined as previously described with minor modifications. Briefly, MT-2 cells (10^4/ml) were exposed to 100 50% tissue culture infectious doses (TCID50) of HIV-1LAI in the presence or absence of various concentrations of drugs in 96-well microculture plates and were incubated at 37° C. for 7 days. After 100 μl of the medium was removed from each well, 3-(4,5-dimetylthiazol-2-yl)-2,5-diphenyltetrazolium bromide (MTT) solution (10 μl, 7.5 mg/ml in phosphate-buffered saline) was added to each well in the plate, followed by incubation at 37° C. for 2 h. […] All assays were performed in duplicate or triplicate. […] To determine the sensitivity of primary HIV-1 isolates to drugs, phytohemagglutinin-stimulated peripheral blood mononuclear cells (PHA-PBMC) (10^6/ml) were exposed to 50 TCID50 of each primary HIV-1 isolate and cultured in the presence or absence of various concentrations of drugs in 10-fold serial dilutions in 96-well microculture plates. In determining the drug susceptibility of certain laboratory HIV-1 strains, MT-4 cells were employed as target cells as previously described with minor modifications. In brief, MT-4 cells (10^5/ml) were exposed to 100 TCID50 of drug-resistant HIV-1 strains in the presence or absence of various concentrations of drugs and were incubated at 37° C. On day 7 of culture, the supernatants were harvested and the amounts of p24 Gag protein were determined by using a fully automated chemiluminescent enzyme immunoassay system (Lumipulse F: Fujirebio Inc., Tokyo). […] All assays were performed in duplicate or triplicate. PHA-PBMs were derived from a single donor in each independent experiment. Thus, for obtaining the data, three different donors were recruited.
The amounts of p24 were measured every two days for up to 7 days.

Data set [3] concerns HIV-1GRL-04810^RP18, and HIV-1GRL-05010^RP10. Kind of data set: p24 assay, the two GRL-selected variants taken together. Type of data set: cell-based. The settings on record: Human immunodeficiency virus 1, read-out: EC50 values against HIV-1GRL-04810^RP18 and HIV-1GRL-05010^RP10. The method, then: as §1
Data set [4] is described as follows: Partition and distribution coefficients, shake-flask method. Type of data set: physicochemical. The note with it: for Concentration in octanol^(b): n-octanol used for logD assay; for Concentration in octanol^(a): n-octanol used for logPOW determination; for Log DOct/Tris pH 7.40: pH 7.4; for Concentration in tris buffer / Concentration in water: shake flask, 100 μM, 230 nm. As for the experimental part:
On day −1 of the experimental setting, saturation of 1-octanol (CH3 (CH2)6CH2OH) (Nacalai Tesque, Kyoto, Japan) water and tris-buffered saline (10X working solution 20 mM Tris, pH 7.4 and 0.9% NaCl, Sigma-Aldrich, St. Louis, Mo.) took place. Four different flasks were used: One containing 50 ml of water plus 100 ml of 1-octanol, the second flask contained 1-octanol saturated with water adding 50 ml of 1-octanol and 100 ml of water. The same ratios and volumes were kept for 1-octanol saturated with tris-buffer and tris-buffer saturated with 1-octanol. The flasks were sealed and placed into a room temperature bio shaker for 24 hours at 90 revolutions per minute. […] Successive dilutions were made to obtain concentrations of 10 μM, 1 μM and 0.1 μM. A standard curve was generated on a light spectrophotometer (DU Series 700, Beckman Coulter Fullerton, Calif.) at 230 nanometer absorbances.
On day 1 of the experiment, the lipid and liquid interfaces were separated, and compounds were diluted again from 20 mM DMSO to 100 μM using the 1-octanol, water and Tris-buffered saline obtained from the shake-flask assay. The resulting diluted compounds were then added to separate serum tubes containing equal proportions of 1-octanol and water, and 1-octanol and Tris-buffered saline. The solution was handshaken for 5 minutes and then centrifuged at 3,500 rpm and room temperature for 20 minutes. Finally, the compounds were recovered from the 1-octanol, Tris-buffer and water interfaces and then measured on a light spectrophotometer.
The values for logP and logD were obtained by applying the following mathematical formulas: […]
The addition of fluorine atoms is generally expected to confer greater lipophilicity on nucleoside analogs and certain compounds (37-39). […] 1-Octanol, organic alcohol, and water were used for logP determination, while tris-buffered saline (pH 7.4) and water were utilized for logD determination. Prior to obtaining the actual values, a standard curve was generated as a reference and drug concentrations attained for each compartment (1-octanol, water and tris-buffered saline) were measured on a light spectrophotometer (at 230 nanometer absorbance) as previously described by Rak et al. (40).
DRV was used as a control. N-octanol, an organic alcohol, and water were used for logP determination, while tris buffer and water were utilized for the logD assay. Prior to the retrieval of actual values a standard curve was generated as a reference. The drug concentrations for each compartment (octanol, water and tris buffer) were measured at 230 nanometer absorbances using a light spectrophotometer. Assay was performed following the OECD guidelines for testing of chemicals “Partition coefficient (n-octanol-water): shake flask method”, adopted by the council on 27 Jul. 1995.^(a) n-octanol used for logPOW determination;^(b) n-octanol used for logD assay. The formulas

Data set [5] concerns HIV-1LAI. Kind of data set: Antiviral activity of brain-side medium from the BBB assay, MTT assay in MT-2 cells. Type of data set: cell-based. The method, then:
The “brain-side” of the medium containing a compound collected in the BBB in vitro assay, was subjected to antiviral assays. Two HIV-1 isolates were employed, HIV-1LAI (Panel A) and HIV-1ERS104pre (Panel B). […] Dilution ranges were between 10-fold and 10,000-fold, and the percentage of viral inhibition was used as an endpoint. […] Assays were conducted in duplicate and error bars show standard deviations.
The assay was carried out using 10, 100, 1000 and 10000 times-diluted brain-side stocks of compounds.
A general note: Tetrazolium dyes change colour on reduction, which living cells bring about.

Setting [6] is: 10-fold diluted brain-side medium.
Where [7] appears, read: 100-fold diluted brain-side medium.

Several values for one entry are separate records, joined by “and”; a condition that tells them apart may be missing. Identical values can stand only once. Like-named read-outs stand apart in the source and are kept apart here.

In data set [1], `COC(=O)N[C@H](C(=O)N[C@@H](Cc1ccccc1)[C@@H](O)CN(Cc1ccc(-c2ccccn2)cc1)NC(=O)[C@@H](NC(=O)OC)C(C)(C)C)C(C)(C)C` [ATV, Atazanavir] came in with a CC50 at 7 days of 28.6 ± 0.9 µM. In data set [2], the EC50 came out at 0.325 µM and the “fold change of EC50 HIV-1GRL04810^RP18 vs HIV-1NL4-3” value (from here on “fold change”) is recorded as 81 fold.
In data set [1], `COc1ccc(S(=O)(=O)N(CC(C)C)C[C@@H](O)[C@H](Cc2ccccc2)NC(=O)OC2CO[C@H]3OCC(F)(F)[C@@H]23)cc1` (stereo partly drawn) [GRL-04810] showed a half-maximal cytotoxic concentration (CC50) at 7 days of 17.5 µM. In addition, in data set [2], the EC50 amounted to 0.033 µM and the “fold change” value was 66 fold. Besides, in data set [3], the EC50 lay within 0.029 to 0.039 µM. Also, in data set [4], the “Log POW (Octanol/Water)” value is −0.14; the “Concentration in octanol^(b)” value was 72 µM and 72.00 µM; the “Concentration in octanol^(a)” value was determined as 70.00 µM; the “Log DOct/Tris pH 7.40” value is listed as −0.29. In data set [4], the “Concentration in tris buffer” value was 42.32 µM and the Concentration in water is 99.78 µM. Besides, in data set [5] (setting [6]), the “suppression of HIV-1LAI replication” value is reported as 94%. The “suppression of HIV-1LAI replication” value in data set [5] (setting [7]) came to 45%.
With `CC(C)(C)NC(=O)[C@@H]1C[C@@H]2CCCC[C@@H]2CN1C[C@@H](O)[C@H](Cc1ccccc1)NC(=O)[C@H](CC(N)=O)NC(=O)c1ccc2ccccc2n1` [SQV, Saquinavir], the CC50 at 7 days in data set [1] (50% cytotoxicity, read-out: CC50) turned out to be 17.7 ± 3.4 µM. Besides, the EC50 in data set [2] is 0.032 µM; in data set [3], 0.032 to 0.036 µM. The “fold change” value in data set [2] is 1 fold. In data set [5] (HIV-1LAI), the “suppression levels of brain-side preparations compared (FIG. 5A)” value was “less than those of GRL-04810^brain and GRL-05010^brain”.
For the compound `CC(C)CN(C[C@@H](O)[C@H](Cc1ccccc1)NC(=O)O[C@H]1CO[C@H]2OCC[C@H]21)S(=O)(=O)c1ccc(N)cc1` [DRV, darunavir], the EC50 in data set [2] was 0.041 µM. Also, the “Log POW (Octanol/Water)” value in data set [4] (shake flask method) was −0.63.
Turning to `CC(C)CN(C[C@@H](O)[C@H](Cc1ccccc1)NC(=O)O[C@H]1CO[C@H]2OCC(F)(F)[C@H]21)S(=O)(=O)c1ccc(N)cc1` [GRL-05010], in data set [2], the EC50 came out at 0.039 µM and the “fold change” value stood at 13 fold. Moreover, the EC50 in data set [3] fell in the range of 0.029 to 0.039 µM. For the same compound, in data set [4], the “Log POW (Octanol/Water)” value is −0.83, the “Concentration in octanol^(b)” value came out at 14.09 µM, the “Concentration in octanol^(a)” value came to 18.70 µM and the “Log DOct/Tris pH 7.40” value is listed as −1.01. Further, in data set [4], the “Concentration in tris buffer” value was 49.84 µM and the Concentration in water worked out at 94.55 µM. Further, in data set [5] (setting [6]), the “suppression of HIV-1LAI replication” value is 91%. Moreover, the “suppression of HIV-1LAI replication” value in data set [5] (setting [7]) was 73%.
